Data published in US20250108036A1, “COMPOSITIONS FOR REMOVING SENESCENT CELLS AND USES THEREOF” (LIFECEUTIX CO., LTD., priority 2021, published 2025).

How the values were obtained:
[1] = chlorhexidine gluconate-induced peritoneal fibrosis in mice (Example 6-2); type: in vivo, C57BL6J mice; details: 0.1% CHG 10 ml/kg i.p. every 2 days for 20 days; LX-112 70 mg/kg i.p. daily from day 9
Experimental: After 8-week-old male C57BL6J mice (purchased from KRIBB Laboratory Animal Resource Center) were adapted to the experimental environment for 1 week, the mice were randomized into an experimental group and a control group. To induce peritoneal fibrosis, 0.1% chlorhexidine gluconate (CHG, purchased from Sigma) was dissolved in 15% ethanol phosphate buffer solution and administered intraperitoneally at a concentration of 10 ml/kg every 2 days for 20 days. From day 9, LX-112 was mixed with 0.5% CMC-Na solution (purchased from Sigma) and administered intraperitoneally at a concentration of 70 mg/kg every day. The control group (−) was administered only the solution in the same volume. On the 20th day, paraffin sections of peritoneal tissue prepared by fixation in 4% paraformaldehyde solution were stained with H/E (Hematoxylin/Eosin) and trichrome, and the thickness of the peritoneal mesothelial cell layer was measured under a light microscope.

Splenocyte = details: cited from earlier work
[2] = system: foreskin cells in which senescence was induced by doxorubicin; assay: CellTiter-Glo cell viability of doxorubicin-induced senescent foreskin cells (Examples 1-2, 10, 11, 13; Tables 4, 63, 65); type: cell-based, human; details: doxorubicin-induced senescent foreskin cells, CellTiter-Glo, 0 μM = 100
Experimental: (§1) After 3 days, cell viability was measured using CellTiter-Glo Luminescent Cell Viability Assay (Promega) or light microscopy.

HMGN1 [3] = assay: HMGN1 ELISA in culture medium of foreskin cells (Examples 10, 11; Tables 62, 63, 64); type: cell-based, human; details: 30 μM test compound, doxorubicin-treated foreskin cells, DMSO = 100
HMGN1 [4] = assay: HMGN1 ELISA in culture medium of A549 cancer cells (Example 12, Table 66); type: cell-based, human; details: doxorubicin-induced senescent A549 cells, test compound 30 μM, ELISA, DMSO = 100
A549 = assay: CellTiter-Glo cell viability of senescent A549 cancer cells (Example 12, Table 67); type: cell-based, human; details: doxorubicin-induced senescent A549 cancer cells, CellTiter-Glo
senescent foreskin cells = assay: survival of senescent foreskin cells treated with medium supernatant (secreted fluid) of compound-killed cells (Example 13, Tables 68, 69); type: cell-based, human; details: culture medium supernatant from dying senescent cells treated with compound at 30 μM, 90 μM or 270 μM; senescent foreskin cells
Experimental: as §1
During this additional culture, by checking with an optical microscope, etc., the medium supernatants containing secreted fluid from normally proliferating and senescent cells in which cell death was induced were obtained. The obtained medium supernatant was replaced with the medium of normally proliferating and senescent cells, respectively, and cell survival rate was measured after 3 days.

p16, MMP3, IL6 [5] = assay: p16, MMP3, IL6 mRNA qRT-PCR in liver of naturally aged mice treated with test compounds (Example 15, Table 71); type: in vivo, C57BL6J mice; details: liver tissue of naturally aged mice treated with test compound
[6] = open field test in naturally aged mice treated with test compounds (Example 15, Table 71); type: in vivo, C57BL6J mice; details: naturally aged mice treated with test compound
p16, MMP3, IL6 [7] = assay: p16, MMP3, IL6 mRNA qRT-PCR in groin fat of obese mice given senescent cells killed by test compounds (Example 16, Table 72); type: in vivo, C57BL6J mice; details: obese mice administered senescent cells whose death was induced by the test compound
Description: To obtain preadipocytes, groin fat tissue was collected from an 8-week-old female C57BL6J mouse (purchased from KRIBB Laboratory Animal Resource Center). The fat tissue was cut into small pieces and treated with collagenase to decompose the fat tissue, then centrifuged to collect the stromal vascular fraction (SVF) containing preadipocytes. It was washed with a washing medium (HBSS, purchased from GenDEPOT; 3.5% Albumin Fraction V, purchased from GenDEPOT; 100 U/ml Penicillin & Streptomycin, purchased from Invitrogen), mixed again, and extracted by filtering through a 100 μm nylon mesh. The isolated preadipocytes were cultured in the designated medium (DMEM, purchased from GenDEPOT; 20% FBS, purchased from GenDEPOT; 100 U/ml Penicillin & Streptomycin, purchased from Invitrogen). In the same manner as Example 1, cells were treated with doxorubicin at a concentration of 250 nM for 24 hours and cultured for an additional 21 days to induce cell senescence. Cells were treated with doxorubicin at a concentration of 250 nM for 24 hours and cultured for an additional 21 days to induce cell senescence. By treating the test compounds in the same manner as in Example 13, it was confirmed using an optical microscope that the death of most senescent cells was induced. The killed preadipocytes were washed using PBS (purchased from Welgene) and then mixed with PBS at a concentration of 5×10^5 cells/200 μl. It was administered subcutaneously to 8-week-old female C57BL6J mice (purchased from KRIBB Laboratory Animal Resource Center). At 7 and 10 days after administration of the killed senescent cells, 2 million senescent preadipocytes were mixed in 200 μl of PBS and administered into the abdominal cavity of mice. After administration of killed senescent cells, obesity was induced in mice with a high-fat diet (DIO) for 8 weeks in the same manner as in Example 9-1. Afterwards, the mouse was sacrificed in the same manner as in Example 7-2, total RNA was extracted from the groin fat tissue, and qRT-PCR was performed and analyzed using the synthesized cDNA. […] The mRNA amount of p16, MMP3, and IL6 without administration of senescent cells whose death was induced by the test compounds was calculated as 100%, and the amount of p16, MMP3, and IL6 after administration of the senescent cells whose death was induced by the test compounds was compared with them. Furthermore, an open field test was performed to analyze aging-related frailty in mice using the same method as Example 7-7. […] The amount of activity evaluation without administration of senescent cells whose death was induced by the test compounds was calculated as 100% and compared it with the amount of activity evaluation after administration of senescent cells whose death was induced by the test compounds. […]

[8] = open field test in obese mice given senescent cells killed by test compounds (Example 16, Table 72); type: in vivo, C57BL6J mice; details: obese mice administered senescent cells whose death was induced by the test compound
Description: To obtain preadipocytes, groin fat tissue was collected from an 8-week-old female C57BL6J mouse (purchased from KRIBB Laboratory Animal Resource Center). The fat tissue was cut into small pieces and treated with collagenase to decompose the fat tissue, then centrifuged to collect the stromal vascular fraction (SVF) containing preadipocytes. It was washed with a washing medium (HBSS, purchased from GenDEPOT; 3.5% Albumin Fraction V, purchased from GenDEPOT; 100 U/ml Penicillin & Streptomycin, purchased from Invitrogen), mixed again, and extracted by filtering through a 100 μm nylon mesh. The isolated preadipocytes were cultured in the designated medium (DMEM, purchased from GenDEPOT; 20% FBS, purchased from GenDEPOT; 100 U/ml Penicillin & Streptomycin, purchased from Invitrogen). In the same manner as Example 1, cells were treated with doxorubicin at a concentration of 250 nM for 24 hours and cultured for an additional 21 days to induce cell senescence. Cells were treated with doxorubicin at a concentration of 250 nM for 24 hours and cultured for an additional 21 days to induce cell senescence. By treating the test compounds in the same manner as in Example 13, it was confirmed using an optical microscope that the death of most senescent cells was induced. The killed preadipocytes were washed using PBS (purchased from Welgene) and then mixed with PBS at a concentration of 5×10^5 cells/200 μl. It was administered subcutaneously to 8-week-old female C57BL6J mice (purchased from KRIBB Laboratory Animal Resource Center). At 7 and 10 days after administration of the killed senescent cells, 2 million senescent preadipocytes were mixed in 200 μl of PBS and administered into the abdominal cavity of mice. After administration of killed senescent cells, obesity was induced in mice with a high-fat diet (DIO) for 8 weeks in the same manner as in Example 9-1. Afterwards, the mouse was sacrificed in the same manner as in Example 7-2, total RNA was extracted from the groin fat tissue, and qRT-PCR was performed and analyzed using the synthesized cDNA. […] The mRNA amount of p16, MMP3, and IL6 without administration of senescent cells whose death was induced by the test compounds was calculated as 100%, and the amount of p16, MMP3, and IL6 after administration of the senescent cells whose death was induced by the test compounds was compared with them. Furthermore, an open field test was performed to analyze aging-related frailty in mice using the same method as Example 7-7. […] The amount of activity evaluation without administration of senescent cells whose death was induced by the test compounds was calculated as 100% and compared it with the amount of activity evaluation after administration of senescent cells whose death was induced by the test compounds.

Molecule	Submesothelial Thickness (μm) [1]	Splenocyte proliferation recovery (Splenocyte)	Survival (%) ([2]; 1.1 μM test compound)	Survival (%) ([2]; […] test compound)	HMGN1 (HMGN1 [3])	HMGN1 (amount of HMGN1 secreted in the cell culture) (HMGN1 [4])	Survival (%) (A549; 1.1 μM test compound)	Survival (senescent foreskin cells)	IL6 mRNA (%) (p16, MMP3, IL6 [5])	MMP3 mRNA (%) (p16, MMP3, IL6 [5])	p16 mRNA (%) (p16, MMP3, IL6 [5])	Open Field Test Time in Center (%) [6]	IL6 mRNA (%) (p16, MMP3, IL6 [7])	MMP3 mRNA (%) (p16, MMP3, IL6 [7])	p16 mRNA (%) (p16, MMP3, IL6 [7])	Open Field Test Time in Center (%) [8]	Survival (%) ([2]; 10 μM test compound)	Survival (%) (A549; 10 μM test compound)
N=C(NCCCCCCNC(=N)NC(=N)Nc1ccc(Cl)cc1)NC(=N)Nc1ccc(Cl)cc1.O=C(O)[C@H](O)[C@@H](O)[C@H](O)[C@H](O)CO.O=C(O)[C@H](O)[C@@H](O)[C@H](O)[C@H](O)CO [CHG, chlorhexidine gluconate, reference compound]	69.1 (±6.4) μm	–	–	–	–	–	–	–	–	–	–	–	–	–	–	–	–	–
CC(O)[C@@H]1NC(=O)COCCOCCNC(=O)[C@H](C(C)O)NC(=O)N[C@@H](C(C)O)C(=O)NNC1=O (stereo partly shown) [Example 80]	–	Splenocyte proliferation recovery 91%	–	–	–	–	–	–	–	–	–	–	–	–	–	–	–	–
CC(=O)OC[C@H]1O[C@@H]([S-])[C@H](OC(C)=O)[C@@H](OC(C)=O)[C@@H]1OC(C)=O.CCP(CC)CC.[Au+] [LX-201, Auranofin, reference compound]	–	–	98.2%	3%	291	337	72.5%	62.9	65.7 (±5.1) %	77 (±9.6) %	85 (±8.2) %	226.4 (±27.6) %	76.8 (±6.4) %	67.1 (±9.2) %	79.5 (±7.6) %	176 (±22.6) %	–	–
S=C(N/N=C1\CCCc2cccnc21)N1CCN(c2ccccn2)CC1 [LX-801]	–	–	50.5%	48.9%	265	329	78.1%	52.7	71.1 (±1.8) %	76.5 (±4.2) %	69.4 (±6.9) %	241.8 (±17.9) %	79.4 (±4.6) %	81.7 (±2.9) %	79.8 (±3.4) %	216.8 (±12.8) %	28.2%	12.7%
Decyltriphenylphosphonium [LX-1202]	–	–	22.7%	3.1%	289	301	53.4%	55.1	74.1 (±6.1) %	40.2 (±22.7) %	74.2 (±10.4) %	231 (±23) %	62.8 (±8.9) %	70.7 (±7.5) %	67.2 (±12.1) %	175.9 (±21.5) %	–	–
